Publication PMC11161644, “An effective and rapidly degradable disinfectant from disinfection byproducts” (Nature Communications, 2024)
“And” between values parts separate entries of the source, which are not always exact repeats. Equal values may be shown once. Read-outs that look alike come from different tables or passages of the source.

How the values were obtained:
C. albicans (ATCC 14053) = test: Inactivation of C. albicans (contact time 5 min); assay type: cell-based, Candida albicans; conditions: for log reduction at 300 µg/mL: Candida albicans, ATCC14053, 5 min, dose 300 mg L-1, pH 7.2, contact time 5 min; for C. albicans inactivation rate constant k / Dose for achieving 3-log inactivation of C. albicans: pH 7.2, contact time 5 min
Method: (§1) The chemicals and reagents used are detailed in Supplementary Note 1. The bacteria E. coli (ATCC 25922) and S. aureus (ATCC 25923) were cultured aerobically in Luria-Bertani broth (Sigma-Aldrich) and Tryptone Soya broth (Oxoid), respectively, at 37 °C for 16 h. The fungus C. albicans (ATCC 14053) was aerobically cultured in Sabouraud Dextrose broth (Difco) at 37 °C for 24 h. The microorganism cells were harvested by centrifugation at 1200×g (10 min, 4 °C) and resuspended in phosphate-buffered saline (PBS, 10 mM, pH 7.2). The disinfection experiments were performed in PBS solutions (10 mM, pH 7.2) with an initial concentration of E. coli, S. aureus, or C. albicans of 10^6‒10^7 cells per milliliter. A contact time of 5 min was used in accordance with the recommended time range of 0.25–10 min by USEPA for surface disinfection. Preliminary tests were conducted to determine the appropriate range of DBP doses. The appropriate dose range was established when the lowest and highest doses could achieve <1-log and >3-log of microbial inactivation, respectively. Based on the preliminary results, a series of doses of DBPs were added to the cell suspensions at room temperature (22 ± 1 °C). After the contact time of 5 min, the microorganism cells were enumerated following a membrane filter method. Briefly, serial 10-fold dilutions were conducted for the disinfected samples and the control sample without disinfection. Each diluted suspension was subjected to filtration through 0.45-μm membrane, which was then placed on a petri dish. The Petri dishes containing E. coli, S. aureus, and C. albicans were incubated in m-FC medium (Becton Dickinson & Co) at 45 °C for 24 h, in Tryptone Soya broth at 37 °C for 24 h and in Sabouraud Dextrose broth at 37 °C for 24 h, respectively. After incubation, the colony-forming units within a statistically reasonable range (20–80) were counted.

[1] = test system: bacteriophage MS2 (ATCC 15597-B1); test: Inactivation of bacteriophage MS2 (double-layer agar, contact time 5 min); assay type: cell-based; conditions: for log reduction at 300 µg/mL: Escherichia phage MS2, ATCC15597, 5 min, dose 300 mg L-1, pH 7.2, contact time 5 min; for Dose for achieving 3-log inactivation of MS2 / MS2 inactivation rate constant k: pH 7.2, contact time 5 min
Method: The bacteriophage MS2 (ATCC 15597-B1) was propagated in the host E. coli (ATCC 15597) in Tryptone Soya broth at 37 °C for 16 h. The viruses were separated from the bacterial debris and purified by centrifuging the phage culture (4000×g, 10 min, 4 °C) and filtering the lysate with a 0.2 μm polyethersulfone sterile filter. The filtrate was then diluted in PBS (10 mM, pH 7.2) to an initial MS2 concentration of 10^9‒10^10 plaque-forming units […]. To initiate the disinfection experiments, a series of DBP doses were added to the MS2 suspension at room temperature (22 ± 1 °C). […] Briefly, serial 10-fold dilutions were conducted for the disinfected samples and the control sample without disinfection. Each dilution was mixed with the host E. coli in the soft agar and the mixture was immediately spread onto a Petri dish with Tryptone Soya agar. After the Petri dishes were incubated at 37 °C for 16 h, the plaque-forming units were counted. The disinfection experiments were performed in duplicate. All the materials for the disinfection experiments were autoclaved before use.

S. aureus (ATCC 25923) = test: Inactivation of S. aureus (contact time 5 min); assay type: cell-based, Staphylococcus aureus; conditions: for log reduction at 300 µg/mL: Staphylococcus aureus, ATCC25923, 5 min, dose 300 mg L-1, pH 7.2, contact time 5 min; for Dose for achieving 3-log inactivation of S. aureus / S. aureus inactivation rate constant k: pH 7.2, contact time 5 min
Method: as §1

P. dumerilii embryos = test: Developmental toxicity (EC50) of OH-DCQ and 2,6-DCQ to P. dumerilii embryos; assay type: in vivo, Platynereis dumerilii
Method: The third aliquot was subjected to the developmental toxicity assay with P. dumerilii embryos. The aliquot was dissolved in 10 mL of seawater and adjusted to pH 8.2. The embryos at 12-h postfertilization were exposed to different levels of OH-DCQ for 12 h. By 24-h postfertilization, normally and abnormally developed embryos were counted using an inverted stereomicroscope. Based on the percentage of normally developed embryos, an exposure−response curve was generated. The median effective concentration (EC50) was determined using SigmaPlot 12 software. The developmental toxicity of 2,6-DCQ was also evaluated for comparison. The toxicity bioassay was conducted in duplicate.

rat = conditions: oral; cited from earlier work
[2] = pH 7.2, S. aureus, read-out: Log (N/N0)
[3] = pH 7.2, C. albicans, read-out: Log (N/N0)
[4] = pH 7.2, MS2, read-out: Log (N/N0)

Oc1ccc(Cl)cc1Cl [2,4-DCPh, 2,4-Dichlorophenol]
log reduction at 300 µg/mL (C. albicans (ATCC 14053); pH 7.2, read-out: Log (N/N0), C. albicans): 0.236
log reduction at 300 µg/mL ([1]; pH 7.2, read-out: Log (N/N0), MS2): 0.549
log reduction at 300 µg/mL (S. aureus (ATCC 25923); pH 7.2, read-out: Log (N/N0), S. aureus): 0.626

Oc1cc(Br)c(O)cc1Br [2,5-DBHQ, 2,5-dibromohydroquinone]
log reduction at 300 µg/mL (S. aureus (ATCC 25923); [2]): 0.62

Oc1ccc(I)cc1I [2,4-DIPh, 2,4-diiodophenol]
log reduction at 300 µg/mL (C. albicans (ATCC 14053); [3]): 5.49
log reduction at 300 µg/mL [1, 4]: 2.17
log reduction at 300 µg/mL (S. aureus (ATCC 25923); [2]): 4.49

O=C1C=C(Cl)C(=O)C(Cl)=C1O [OH-DCQ, 3-hydroxyl-2,6-dichloro-1,4-benzoquinone]
Normal development (P. dumerilii embryos; OH-DCQ concentration 15 mg L-1): 92.9293% and 86.7257%
Normal development (P. dumerilii embryos; OH-DCQ concentration 25 mg L-1): 83.1776% and 81.579%
Normal development (P. dumerilii embryos; OH-DCQ concentration 35 mg L-1): 84.1584% and 85.7144%
Normal development (P. dumerilii embryos; OH-DCQ concentration 40 mg L-1): 83.0189% and 85.5855%
Normal development (P. dumerilii embryos; OH-DCQ concentration 48 mg L-1): 79.8164% and 77.4194%
Normal development (P. dumerilii embryos; OH-DCQ concentration 65 mg L-1): 67.0813% and 64.9575%
Normal development (P. dumerilii embryos; OH-DCQ concentration 85 mg L-1): 48.8761% and 42.0329%

Cc1cc(O)cc(C)c1Cl [PCMX, para-chloro-meta-xylenol, reference compound]
log reduction at 300 µg/mL (C. albicans (ATCC 14053); [3]): 3.49
C. albicans inactivation rate constant k (C. albicans (ATCC 14053)): 3670 µL/min/mg
Dose for achieving 3-log inactivation of C. albicans (C. albicans (ATCC 14053)): 320 mg L−1
log reduction at 300 µg/mL [1, 4]: 1.03
Dose for achieving 3-log inactivation of MS2 [1]: 1010 mg L−1
MS2 inactivation rate constant k [1]: 600 µL/min/mg
log reduction at 300 µg/mL (S. aureus (ATCC 25923); [2]): 3.04
Dose for achieving 3-log inactivation of S. aureus (S. aureus (ATCC 25923)): 308 mg L−1
S. aureus inactivation rate constant k (S. aureus (ATCC 25923)): 3670 µL/min/mg
LD50 (rat): 3830 mg/kg

Oc1cc(I)c(O)cc1I [2,5-DIHQ, 2,5-diiodohydroquinone]
log reduction at 300 µg/mL (C. albicans (ATCC 14053); [3]): 0.393
log reduction at 300 µg/mL [1, 4]: 1.11
log reduction at 300 µg/mL (S. aureus (ATCC 25923); [2]): 0.792

O=C1C=C(Cl)C(=O)C(Cl)=C1 [2,6-DCQ, 2,6-dichlorobenzoquinone]
C. albicans inactivation rate constant k (C. albicans (ATCC 14053)): 31300 µL/min/mg
Dose for achieving 3-log inactivation of C. albicans (C. albicans (ATCC 14053)): 35.4 mg L−1
Normal development (P. dumerilii embryos; 2,6-DCQ concentration 0.2 mg L-1): 80.7017% and 79.2079%
Normal development (P. dumerilii embryos; 2,6-DCQ concentration 0.3 mg L-1): 76.7442% and 82.4428%
Normal development (P. dumerilii embryos; 2,6-DCQ concentration 0.4 mg L-1): 80% and 80.822%
Normal development (P. dumerilii embryos; 2,6-DCQ concentration 0.5 mg L-1): 62.0155% and 62.3077%
Normal development (P. dumerilii embryos; 2,6-DCQ concentration 0.6 mg L-1): 42.1875% and 37.2727%
Normal development (P. dumerilii embryos; 2,6-DCQ concentration 0.75 mg L-1): 16.2963% and 20.7921%
Normal development (P. dumerilii embryos; 2,6-DCQ concentration 1 mg L-1): 7.407% and 6.667%
Developmental toxicity relative to OH-DCQ (times higher) (P. dumerilii embryos; P. dumerilii embryos): 149 times
Dose for achieving 3-log inactivation of MS2 [1]: 46.1 mg L−1
MS2 inactivation rate constant k [1]: 14200 µL/min/mg
Dose for achieving 3-log inactivation of S. aureus (S. aureus (ATCC 25923)): 28.6 mg L−1
S. aureus inactivation rate constant k (S. aureus (ATCC 25923)): 20200 µL/min/mg
LD10 (rat): 500 mg/kg
